The text below walks through data of the OPERA property sets (Mansouri et al. 2018).

Each structure is given as a SMILES string.

As to `NS(=O)(=O)c1cc2c(cc1Cl)NC(C(F)(F)F)NS2(=O)=O` (stereo unspecified), the logP (commonly the decadic logarithm of the partition coefficient of the neutral form, usually between octanol and water) is 0.49. For `CC(=O)NC(CC(N)=O)C(N)=O` (stereo unspecified), the logP was -2.41. The value for `O=C(O)COc1cc(Cl)cc(Cl)c1` was 2.84; that for `Cc1nc(N)sc1C(=O)CCN1CCCC1` was 1.74. With `O=C(O)c1cc(I)ccc1O`, the logP was 3.34. For `CN(C)CCN1C(=O)c2ccccc2Nc2cc(Cl)ccc21`, the logP stood at 3.73.

For `O=C1CC2(CCCC2)C(=O)N1O`, the logP was -0.26.

In turn, `Clc1ccccc1` registered a log partition coefficient (logP) of 2.84. The value for `CCOC(=O)CCCO` was 0.43; that for `CCOP(=O)(OCC)OC(=CCl)c1ccc(Cl)cc1Cl` was 3.81. The figure for `CCOC(=O)NC1=NCC(c2cccc(C)c2C)N1C` (stereo unspecified) is 2.57; for `NS(=O)(=O)c1ccc(Cl)cc1` it is 1.15; for `N#CCCO` it is -0.94.

`CCC(C(=O)OCc1ccccc1)C(COC(=O)Cc1ccccc1)Cc1cncn1C` (stereo unspecified) yielded a logP of 4. The figure for `CC(=O)O[C@H]1C[C@H](O[C@H]2[C@@H](O)C[C@H](O[C@H]3[C@@H](O)C[C@H](OC4CC[C@@]5(C)[C@H](CC[C@@H]6[C@@H]5CC[C@]5(C)[C@@H](C7=CC(=O)OC7)CC[C@]65O)C4)O[C@@H]3C)O[C@@H]2C)O[C@H](C)[C@H]1O[C@@H]1O[C@H](CO)[C@@H](O)[C@H](O)[C@H]1O` (stereo partly specified) is 1.23; for `CCCNC(=O)CCn1ccc(=O)c(O)c1C` it is -0.4.

In turn, `COc1cccc(C2(O)CCCCC2CN(C)C)c1` (stereo unspecified) gave a logP of 2.51. The figure for `O=C(Nc1ncnc2c1ncn2[C@@H]1O[C@H](CO)C[C@@H]1F)c1ccccc1` is 0.73. Regarding `Cc1cc2n(c1C(=O)c1ccc(Cl)cc1)CCC2C(=O)O` (stereo unspecified), the logP turned out to be 3.6. The figure for `CC(CN1CCCCC1)C(=O)c1ccccc1` (stereo unspecified) is 3.51.

`O=C(O)Cc1ccc(C(=O)O)cc1`: the logP came to 1.24.

Take `CCOC(=O)c1cc(=O)[nH]c(=O)[nH]1`: the logP came to 0.68.

In turn, `CC[C@H](C)C(=O)O[C@H]1CCC=C2C=C[C@H](C)[C@H](CC[C@@H]3C[C@@H](O)CC(=O)O3)[C@H]21` came in with a logP of 3.95. The figure for `CCC1(c2ccccc2)C(=O)NC(=O)N1S(=O)(=O)c1ccccc1` (stereo unspecified) is 2.44; for `O=[N+]([O-])c1c(Cl)c(Cl)c(Cl)c(Cl)c1Cl` it is 4.64; for `CCCOC(=O)c1ccoc1` it is 2.36. For `OC(Cn1ccnc1)(c1ccc(F)cc1)c1ccc(Br)cc1` (stereo unspecified), the log partition coefficient (logP) worked out at 3.42. Turning to `CN(C)C(=O)c1cccc(Oc2ccccc2)c1`, the logP amounted to 2.57. On to `CCCN1Cn2c(nc3ccccc3c2=O)C1C` (stereo unspecified), for which the lipophilicity (logP) was 1.4.

The compound `O=C(OC[C@H]1O[C@@H](n2cc(I)c(=O)[nH]c2=O)C[C@@H]1O)c1ccccc1` had a logP of 1.4. The value for `NC(=O)OC1c2ccccc2C2CCCCC2C1OC(N)=O` (stereo unspecified) was 2.17.

For the compound `COc1ccc2cc(C(C)C(=O)OCC=C(C)CCC=C(C)C)ccc2c1` (stereo unspecified), the logP stood at 7.77. On to `CNC(=S)NCCCCc1nc[nH]c1C`, for which the logP stood at 0.85.

Consider `Cc1cc(OCC(=O)O)ccc1S(C)(=O)=O`, for which the lipophilicity (logP) stood at 0.54. With `Cc1ccc(C)c(C)c1C`, the logP came out at 4. For the compound `CCC1(O)CC2CN(CCc3c([nH]c4ccccc34)C(C(=O)OC)(c3cc4c(cc3OC)N(C)C3C(O)(C(=O)OC)C(OC(=O)CN(C)C)C5(CC)C=CCN6CCC43C65)C2)C1` (stereo unspecified), the lipophilicity (logP) came to 4.02. `OC(CN1C2CCCCCC21)Cn1ccnc1` (stereo unspecified): the logP was 1.44. Consider `CCCCn1ccc(=O)c(O)c1CC`, for which the logP came to 1.22. The compound `CC(C)(C)c1ccc(OCC(OC(=O)n2ccnc2)C(C)(C)C)cc1` (stereo unspecified) displayed a logP of 4.82. `COC(=O)NC1=NCC(c2cccc(F)c2)N1` (stereo unspecified) came in with a logP of 1.41. Compound `CCN(C)C(=O)CCn1ccc(=O)c(O)c1C` returned a logP of -0.69. The compound `NC(=S)c1ccc([N+](=O)[O-])cc1` had a logP of 1.75.

With `COc1cc(NS(=O)(=O)c2ccc(N)cc2)ncn1`, the logP turned out to be 0.7.

`CCCCCCCC(=O)n1cc(CC(NC(=O)CC2NC(=O)C3C4CCC(CC4)N3C2=O)C(=O)NC(Cc2ccccc2)C(=O)N(C)Cc2ccccc2)c2ccccc21` (stereo unspecified) came in with a lipophilicity (logP) of 7.29. `CC1NC(=O)NC1=O` (stereo unspecified): the logP was -0.91. The value for `COC(=O)NC1=NCC(c2ccc(Cl)cc2)N1C` (stereo unspecified) was 2.17; that for `CCc1[nH]ccc(=O)c1O` was 0.05; that for `CC(C(=O)CCN(C)C)N1C(=O)C2CC=CCC2C1=O` (stereo unspecified) was 0.77. The value for `Cc1ccc(C(=O)CCN2CCCCC2)c(C)c1` was 3.71; that for `Cc1c(O)c(=O)ccn1CCC(=O)N(C)C` was -1.16. In turn, `O=C(O)Cc1ccc(O)c(O)c1` yielded a lipophilicity (logP) of 0.98. `O=C(O)CCCCOc1cccc2ccccc12`: the logP stood at 4. Take `Cc1onc(-c2c(F)cccc2Cl)c1C(=O)NC1C(=O)N2C1SC(C)(C)C2C(=O)O` (stereo unspecified): the logP is 2.58. The value for `NC(=S)c1ccc(Cl)cc1` was 2.4.

Compound `CCOc1ccc(OCC(OC(=S)n2ccnc2)C(C)(C)C)cc1` (stereo unspecified) gave a logP of 4.58. The compound `CCN(C)C(=O)c1cccc(Oc2ccccc2)c1` showed a logP of 2.98.

Turning to `CCCc1ccc(OCC(OC(=S)n2ccnc2)C(C)(C)C)cc1` (stereo unspecified), the logP was 5.77. The figure for `O=C(Cc1nc(I)c([N+](=O)[O-])[nH]1)NCc1cccnc1` is 0.88; for `Cc1nnc(C(C)(C)C)c(=O)n1N` it is 1.03; for `CC(C)(C)NCC(O)COc1cccc2c1C[C@H](O)[C@H](O)C2` (stereo partly specified) it is 0.81. Take `Clc1ccc(C(c2ccc(Cl)cc2)C(Cl)Cl)cc1`: the logP came to 6.02. The figure for `CCCc1c(C)nc2ccccn2c1=O` is 1.75.

In turn, `NC(=S)NNC(=O)c1ccc2c(c1)OCO2` displayed a logP of 0.21. The figure for `CSc1nnc(C2CCOCC2)c(=O)n1N` is 1.07; for `O=C1C[N+]([O-])=C(c2ccccc2)c2cc(Cl)ccc2N1CCO` it is 0.82.

Compound `COC(=O)NC1=NCC(c2cc(Br)ccc2Br)N1C` (stereo unspecified) returned a logP of 2.77. Turning to `CC(=O)Nc1n[nH]c(C)cc1=O`, the lipophilicity (logP) is -0.89. The figure for `C[N+](C)(C)CC1CSCO1.[I-]` (stereo unspecified) is -2.7.

`CC(C)Oc1ccc(OCC(OC(=O)n2ccnc2)C(C)(C)C)cc1` (stereo unspecified) gave a logP of 4.08. Turning to `COc1ncnc(NS(=O)(=O)c2ccc(N)cc2)c1OC`, the logP amounted to 0.7. Regarding `CCC12CCN(CC3(O)CC3)C(Cc3ccc(O)cc31)C2(C)C` (stereo unspecified), the logP stood at 3.82. `CCc1c(O)c(=O)ccn1CC`: the logP worked out at 0.25. With `CCCc1ccc(OCC(OC(=O)n2ccnc2)C(C)(C)C)cc1` (stereo unspecified), the logP was 4.73. The value for `CN(C)C(=O)Nc1ccc(Oc2nnnn2C2CCCCC2)cc1` was 2.18. The figure for `CCOc1ccc(C=NNC(=N)N)cc1` is 0.24; for `COc1ccc(C(O)C(=O)O)cc1` (stereo unspecified) it is 0.63; for `NS(=O)(=O)c1ccc2c(c1)S(=O)(=O)NC(C(Cl)Cl)N2` (stereo unspecified) it is 0.51. On to `CC(=O)NCc1ccc(OCC(O)CNC(C)C)cc1` (stereo unspecified), for which the lipophilicity (logP) was 0.32. Take `Clc1cccc2cccc(Cl)c12`: the logP was found to be 4.3.

In turn, `CCCN(C)C(=O)c1cccc(Oc2ccccc2)c1` displayed a logP of 3.44. The figure for `O=C1CC2(CCCC2)C(=O)N1Oc1ccccc1` is 1.77.
